Measured values taken from the supplement of paper PMC4862054.

How the values were obtained:
Assay in all cases: normalised response (% of control), CellTiter-Glo; higher = more viable cells (100 = DMSO, 0 = benzethonium chloride kill control)
Details in all cases: incubation time: 72 h
CAL-148 = test system: CAL-148
Method in brief: (§1)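 In 384-well plates holding compound at 5 concentrations in 10-fold steps over a 10,000-fold range specific to each compound, breast cancer cell lines were seeded as 20 µl suspension and incubated 72 h. CellTox Green fluorescence was measured at 485/520 nm, after which CellTiter-Glo luminescence was measured following 10 min at room temperature. Plate signals were normalised to 0.1 % DMSO (100) and a positive kill control (0), and each value is the normalised signal at a single concentration.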

MDA-MB-468 = test system: MDA-MB-468
Method in brief: as §1

BT-549 = test system: BT-549
Method in brief: as §1

BT-474 = test system: BT-474
Method in brief: as §1

MFM-223 = test system: MFM-223
Method in brief: as §1

MCF-10A = test system: MCF-10A
Method in brief: as §1

MDA-MB-453 = test system: MDA-MB-453
Method in brief: as §1

HCC1937 = test system: HCC1937
Method in brief: as §1

HCC1599 = test system: HCC1599
Method in brief: as §1

MDA-MB-231 = test system: MDA-MB-231
Method in brief: as §1

HDQ-P1 = test system: HDQ-P1
Method in brief: as §1

CAL-85-1 = test system: CAL-85-1
Method in brief: as §1

SK-BR-3 = test system: SK-BR-3
Method in brief: as §1

## CC[C@@]1(O)C(=O)OCc2c1cc1n(c2=O)Cc2cc3c(CN(C)C)c(O)ccc3nc2-1 [Topotecan] (100 nM)
CAL-148
  normalised response: 62.4%
MDA-MB-468
  normalised response: 62.5%
BT-549
  normalised response: 84.2%
BT-474
  normalised response: 91.9%
MFM-223
  normalised response: 97.4%
MCF-10A
  normalised response: 90.2%
MDA-MB-453
  normalised response: 133%
HCC1937
  normalised response: 95.7%
HCC1599
  normalised response: 65.5%
MDA-MB-231
  normalised response: 92.8%
HDQ-P1
  normalised response: 95.7%
CAL-85-1
  normalised response: 85.7%
SK-BR-3
  normalised response: 66.3%
